Source: US20200199102A1, “COMPOUNDS THAT PARTICIPATE IN COOPERATIVE BINDING AND USES THEREOF” (Revolution Medicines, Inc., priority 2017, published 2020)
Read-outs that look alike come from different tables or passages of the source.

Key:
FKBP12 [1] = target: T1, FKBP12 (Homo sapiens, UniProt P62942); test: SPR binding of compound (analyte) to immobilized FKBP12
Description: This protocol utilizes Surface Plasmon Resonance (SPR) as a method to determine kinetics (KD, Ka, Kd) for the binding of compound (analyte) to immobilized FKBP12 (ligand).
Compound in 100% DMSO (in-house), 10×HBS-P+ buffer (GE Healthcare BR-1006-71), Assay buffer (1×HBS-P+ buffer, 1% DMSO), 12×HIS tagged FKBP12 (in-house).
Experiments are performed at 25° C. Stock solution of 12×HIS tagged FKBP12 is diluted to 100 nM in assay buffer (1% DMSO final). Approximately 500-600 RU of FKBP12 is immobilized on one of two flow cells of an activated NTA chip. The second flow cell is not activated as a reference for non-specific interaction of the analyte to the sensor chip. Various concentrations of compound (1 nM-1 μM range), serially diluted into the same assay buffer (1% DMSO final), are injected onto the FKBP12 surface and reference surface at a flow rate of 10 μl/min. The surface is regenerated between analyte injections with 350 mM EDTA.
The BiaEvaluation software program is used for data fitting. All data is reference subtracted against both the reference flow cell and a buffer injection. For kinetic analyses, data is locally fit to a 1:1 interaction model.
Experiments are performed at 25° C. Stock solution of 12×HIS tagged FKBP12 is diluted to 100 nM in assay buffer (1% DMSO final). Approximately 500-600 RU of FKBP12 is immobilized on one of two flow cells of an activated NTA chip. The second flow cell is not activated as a reference for non-specific interaction of the analyte to the sensor chip.

HeLa-FKBP12 cells = test: Biosensor cell permeability assay (FKBP destabilizing mutant), HeLa-FKBP12 cells; assay type: cell-based; settings: 72 hrs
Description: Cell permeability of compounds can be determined using the following protocol.
This protocol utilizes a modified FKBP or cyclophilin destabilizing mutant to determine the bioactivity of FKBP binding compounds or cyclophilin binding compounds in whole cell assay.
DMEM, DMEM without Phenol Red, 10% FBS, 1× Sodium Pyruvate, 1× Glutamax. Add 125 μl of media with compound per well.
Plate HeLa-FKBP12 cells (for FKBP binding compounds) or HeLa-CyclophilinA cells (for cyclophilin binding compounds) and seed overnight at 5 k/well (approximately ˜18 hrs.). Using a multi-channel pipet, take out the old media and add ˜125 ul of new media with compounds. Compounds are diluted using DMEM without Phenol Red, 10% FBS, 1× Sodium Pyruvate, 1× Glutamax. Add 125 μL of media with compound per well. Cells are treated with compounds at concentration: 30, 10, 3.33, 1.11, 0.37, 0.12, 0.04 and 0.013 uM. Time points are taken at 72 hrs and plate read using plate reader with excitation/emission: 575/620.
Cell binding/permeability is calculated in fold-change (Total RFU of treated samples/total RFU of DMSO treated samples or total RFU above background (Total RFU minus total RFU of DMSO treated samples).

FKBP12 [2] = target: T1, FKBP12; test: AlphaLISA inhibition of binding of biotinylated FK506 to FLAG tagged FKBP12; design: made in house; settings: read-out: Binding affinity to FKBP12 (by displacement of FK506)
From the text: The binding of compounds of the invention to FKBP12 can be determined using the following protocol.
This protocol utilizes Perkin Elmers AlphaLISA technology platform to detect FKBP binders by measuring the inhibition of binding of biotinylated FK506 to FLAG tagged FKBP12.
10×TBST Buffer (Boston BioProducts IBB-181), Biotinylated FK506 (in-house), FLAG tagged FKBP (in-house); anti-FLAG Donor beads (PerkinElmer AS103) and Streptavidin Acceptor beads (PerkinElmer AL125); Compounds in DMSO (in-house), FK506.
Add 20 uL of 12.5 nM FKBP-FLAG working stock to each well of the 96-well plate. Add 1 uL of test compound (100% DMSO) to each well of the plate using the Janus MTD head and P20 tips (except control wells). Add 1 uL of DMSO to negative control wells and 1 uL of 50 uM FK506 solution to positive control wells. In the dark, add 20 uL of combined Donor/Acceptor beads to each well. Incubate in the dark for 30 minutes at room temperature. In the dark, add 10 uL of 5 nM biotinylated FK506 working stock to each well. Incubate in the dark for 60 minutes at room temperature. Protect plate from light until reading on Biotek Synergy2 Plate Reader; Alphalisa 96-well protocol (680 excitation/615 emission).

CEP250 [3] = target: T2, CEP250 (Homo sapiens, UniProt P62942+Q9BV73); test: Crystal structure analysis of FKBP12-compound-CEP250 ternary complexes; settings: FKBP12-compound-CEP250 crystal structure
T2 construct: CEP25011.4 (residues 2134-2231) (in-house); made in house
T2 sequence (Q9BV73 2134-2231): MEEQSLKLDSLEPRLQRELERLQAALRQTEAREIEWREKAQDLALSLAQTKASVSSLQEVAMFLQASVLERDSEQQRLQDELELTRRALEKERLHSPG
T2 sequence (P62942 whole entry, the tested form may be a part): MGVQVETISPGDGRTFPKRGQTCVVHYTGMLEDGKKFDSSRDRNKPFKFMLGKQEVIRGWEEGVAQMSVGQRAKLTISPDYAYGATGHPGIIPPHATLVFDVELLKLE
Description: This protocol describes the crystallization and structure determination method for structures of FKBP12-Compound 2-CEP250 and FKBP12-F11-CEP250 ternary complexes.
A 3:1 molar excess of FKBP12-F2 or FKBP12-F11 binary complex is added to CEP25011.4 and incubated at 4° C. overnight to complete ternary complex formation. Pure ternary complex is isolated by gel filtration purification on a Superdex 200 column in 12.5 mM HEPES pH 7.4, 75 mM NaCl. Purified complex (at 10-20 mg/ml) is subjected to crystallization at 22° C. using sitting drop vapor diffusion. FKBP12-F2-CEP250 crystals grow in a well solution containing 0.2 M sodium malonate, 0.1 M HEPES 7.0, 21% PEG 3350. FKBP12-F11-CEP250 crystals grow in a well solution containing 0.1 M Tris pH 8.5, 0.2 M trimethylamine N-oxide, 22-24% PEG2000 MME. For data collection crystals are transferred to a solution containing mother liquor supplemented with 20-25% glycerol, and then frozen in liquid nitrogen. Diffraction datasets are collected at the Advanced Photon Source (APS) and processed with the HKL program. Molecular replacement solutions are obtained using the program PHASER in the CCP4 suite, using the published structure of FKBP12 (PDB-ID 1FKD) as a search model. Subsequent model building and refinement are performed according to standard protocols with the software packages CCP4 and COOT.

CEP250 [4] = target: T3, CEP250 (Homo sapiens, UniProt Q9BV73); test: ITC binding of FKBP12-compound binary complexes to CEP250; settings: FKBP12 10 μM + ligand 20 μM in cell, 298 K; for Kd: calculated from Ka = 1/Kd
T3 construct: CEP25011.4 (residues 2134-2231) (in-house); made in house

[5] = read-out: SPR affinity to FKBP12: KD, 25° C., Table 7

T1 sequence (P62942 whole entry, species assumed): as the sequence (P62942 whole entry, the tested form may be a part) above

Row | Compound | Kd (FKBP12 [1]; [5]) [µM] | IC50 (HeLa-FKBP12 cells) [µM] | IC50 (FKBP12 [2]) [µM] | other results
1 | CC1=CCC(O)CC(C(C)=CC(C)=CC2C=CC(O)C(O)C2)OC(=O)C2CCCCN2C(=O)CC2(O)OC(C(C)CC=CCC(O)C=C1)C(C)CC2C (stereo not shown) [Compound F6] | 0.141 | < 1 | 0.06 | –
2 | COC1C(O)CCC(CC(C)C2CCCC=CCC(C)=CCC3OC(O)(C(=O)C(=O)N4CCCCC4C(=O)O2)C(C)CC3C)C1O (stereo not shown) [Compound F9] | 0.00023 | < 1 | 0.0003 | –
3 | CCC1C=C(C)C(O)CCC(C)C=CC(O)C(C)C2CCC(C)C(O)(O2)C(=O)C(=O)N2CCCCC2C(=O)OC2C=CC(=CC2O)C=C(C)C1 (stereo not shown) [Compound F10] | 0.0172 | > 1 | 0.0211 | –
4 | CC[C@H](Cc1ccccc1)[C@@H]1CCCCCC[C@@H](C)[C@H](O)[C@@H](C)[C@@H]2CC[C@@H](C)C(=O)C(O)(O2)C(=O)N2CCCC[C@H]2C(=O)O1 [Compound F11, (2S)-1-((4R,7S)-7-((2R,3S,4R,11S,12R)-12-benzyl-3,11-dihydroxy-4-methyltetradecan-2-yl)-2-hydroxy-4-methyl-3-oxooxepane-2-carbonyl)piperidine-2-carboxylic acid C-11 Lactone] | – | – | 0.00051 | buried surface area of CEP250 contributed by FKBP12 (CEP250 [3]): 590 Å^2; total buried surface area of CEP250 (CEP250 [3]): 831 Å^2; total buried surface area of the ternary complex (CEP250 [3]): 1648 Å^2; Kd (FKBP12 [1]; KD, Example 10, 25° C., 1:1 interaction model): 0.0156 µM; Kd (FKBP12 [1]; SPR affinity to FKBP12: KD, 25° C., Table 7): 0.0215 µM; ΔG (CEP250 [4]; CEP25011.4 68 μM in syringe): −40.36 kJ*mol −mol−1; ΔH (CEP250 [4]; CEP25011.4 68 μM in syringe): −47.78 kJ*mol −mol−1; −T*ΔS (CEP250 [4]; CEP25011.4 68 μM in syringe): 7.41 kJ*mol −mol−1; Kd (CEP250 [4]; CEP25011.4 68 μM in syringe): 0.08 µM; ΔG (CEP250 [4]; CEP25029.4 118 μM in syringe): −36.74 kJ*mol −mol−1; ΔH (CEP250 [4]; CEP25029.4 118 μM in syringe): −58.48 kJ*mol −mol−1; −T*ΔS (CEP250 [4]; CEP25029.4 118 μM in syringe): 21.73 kJ*mol −mol−1; Kd (CEP250 [4]; CEP25029.4 118 μM in syringe): 0.36 µM
5 | CC1=CC2=CC(O)C(C=C2)OC(=O)C2CCCCN2C(=O)C(=O)C2(O)OC(CCC2C)C(C)C(O)C=CC(C)CCC(O)C(C)=CC(C)C1 (stereo not shown) [Compound F12] | 0.0212 | > 1 | 0.0363 | –
6 | CC(=CC1C=CC(O)C(O)C1)C=C(C)C1CC(O)CC1C(C)(O)C=CC(O)CC=CCC(C)C1OC(O)(CC(=O)N2CCCCC2C(=O)O)C(C)CC1C (stereo not shown) [Compound F23] | – | > 1 | 4.69 | –
